In PubChem BioAssay (NCI):
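Five concentrations, 48 hours, 96-well plates. GI50 is the concentration that inhibits growth by half. Definition used: TGI = concentration required for complete inhibition of growth.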

How the values were obtained:
Experiment in all cases: NCI tumour cell line growth inhibition, 48 h
[1] = tested on: SK-MEL-28 melanoma
[2] = tested on: NCI-H226 lung
[3] = tested on: DU-145 prostate
[4] = tested on: UO-31 renal
[5] = tested on: OVCAR-4 ovarian
[6] = tested on: HCC-2998 colon
[7] = tested on: SK-OV-3 ovarian
[8] = tested on: MCF7 breast
[9] = tested on: MDA-MB-231 breast
[10] = tested on: SK-MEL-2 melanoma
[11] = tested on: ACHN renal
[12] = tested on: SNB-19 CNS
[13] = tested on: A498 renal
[14] = tested on: SN12C renal
[15] = tested on: T-47D breast
[16] = tested on: SNB-75 CNS
[17] = tested on: TK-10 renal
[18] = tested on: HCT-116 colon
[19] = tested on: UACC-257 melanoma
[20] = tested on: U251 CNS
[21] = tested on: SF-295 CNS
[22] = tested on: EKVX NSCLC
[23] = tested on: SR leukemia
[24] = tested on: 786-0 renal
[25] = tested on: SF-539 CNS
[26] = tested on: HOP-62 NSCLC
[27] = tested on: A549 NSCLC
[28] = tested on: MALME-3M melanoma
[29] = tested on: MOLT-4 leukemia
[30] = tested on: HCT-15 colon
[31] = tested on: NCI/ADR-RES ovarian
[32] = tested on: NCI-H23 lung
[33] = tested on: HL-60(TB) leukemia
[34] = tested on: LOX IMVI melanoma
[35] = tested on: PC-3 prostate
[36] = tested on: BT-549 breast
[37] = tested on: SF-268 CNS
[38] = tested on: M14 melanoma
[39] = tested on: OVCAR-5 ovarian
[40] = tested on: UACC-62 melanoma
[41] = tested on: NCI-H460 lung
[42] = tested on: OVCAR-3 ovarian
[43] = tested on: HS 578T breast
[44] = tested on: CCRF-CEM leukemia
[45] = tested on: IGROV1 ovarian
[46] = tested on: RPMI-8226 leukemia
[47] = tested on: OVCAR-8 ovarian
[48] = tested on: KM12 colon
[49] = tested on: SW-620 colon
[50] = tested on: NCI-H522 lung
[51] = tested on: HT29 colon
[52] = tested on: HOP-92 NSCLC
[53] = tested on: SK-MEL-5 melanoma
[54] = tested on: CAKI-1 renal
[55] = tested on: COLO 205 colon
[56] = tested on: K-562 leukemia

Compound: C=CCOC(=O)CCCCCCCCCCCCCCCOC(=O)C1=C(CCC[C@@H](C)O[Si](C)(C)C(C)(C)C)N=C(N)N2[C@H](CC3(CC/C=C\[C@H](CC)O[Si](C(C)C)(C(C)C)C(C)C)OCCO3)CC[C@@H]12
- TGI [1]: > 100000 nM
- TGI [2]: > 100000 nM
- TGI [3]: > 100000 nM
- TGI [4]: > 100000 nM
- TGI [5]: > 100000 nM
- TGI [6]: > 100000 nM
- TGI [7]: > 100000 nM
- TGI [8]: > 100000 nM
- TGI [9]: > 100000 nM
- TGI [10]: > 100000 nM
- TGI [11]: > 100000 nM
- TGI [12]: > 100000 nM
- TGI [13]: > 100000 nM
- TGI [14]: > 100000 nM
- TGI [15]: > 100000 nM
- TGI [16]: > 100000 nM
- TGI [17]: > 100000 nM

Compound: c1cncc(CNc2ccccc2-c2nnc(Nc3ccc4c(c3)OCO4)o2)c1
- GI50 [18]: 51.6 nM
- TGI [18]: > 100000 nM
- GI50 [19]: 432 nM
- TGI [19]: 60400 nM
- GI50 [20]: 45.2 nM
- TGI [20]: > 42800 nM
- GI50 [21]: 52.8 nM
- TGI [21]: > 100000 nM
- GI50 [22]: 328 nM
- TGI [22]: > 100000 nM
- GI50 [1]: 65.4 nM
- TGI [1]: > 100000 nM
- GI50 [23]: 36.1 nM
- TGI [23]: > 100000 nM
- GI50 [24]: 140 nM
- TGI [24]: > 90400 nM
- GI50 [25]: 81.5 nM
- TGI [25]: 539 nM
- GI50 [3]: 197 nM
- TGI [3]: > 100000 nM
- GI50 [26]: 85 nM
- TGI [26]: > 81000 nM
- GI50 [4]: 310 nM
- TGI [4]: > 100000 nM
- GI50 [5]: 1000 nM
- TGI [5]: > 100000 nM
- GI50 [27]: 68.6 nM
- TGI [27]: > 100000 nM
- GI50 [6]: 113 nM
- GI50 [7]: 91.4 nM
- TGI [7]: 7810 nM
- GI50 [8]: 39 nM
- TGI [8]: > 100000 nM
- GI50 [28]: 74.4 nM
- TGI [28]: > 100000 nM
- GI50 [29]: 194 nM
- TGI [29]: > 100000 nM
- GI50 [30]: 57.8 nM
- TGI [30]: > 100000 nM
- GI50 [31]: 29.1 nM
- TGI [31]: 142 nM
- GI50 [9]: 343 nM
- TGI [9]: > 100000 nM
- GI50 [32]: 66.2 nM
- TGI [32]: > 100000 nM
- GI50 [33]: 25.9 nM
- TGI [33]: 147 nM
- GI50 [34]: 54.7 nM
- TGI [34]: > 100000 nM
- GI50 [35]: 89.8 nM
- TGI [35]: > 76900 nM
- GI50 [36]: 604 nM
- TGI [36]: > 100000 nM
- GI50 [37]: 407 nM
- TGI [37]: > 100000 nM
- GI50 [38]: 56 nM
- TGI [38]: > 100000 nM
- GI50 [39]: 347 nM
- TGI [39]: > 100000 nM
- GI50 [40]: 54.2 nM
- TGI [40]: > 100000 nM
- GI50 [10]: 52 nM
- TGI [10]: 91900 nM
- GI50 [11]: 717 nM
- TGI [11]: > 100000 nM
- GI50 [41]: 43.5 nM
- TGI [41]: > 100000 nM
- GI50 [12]: 112 nM
- TGI [12]: > 100000 nM
- GI50 [42]: 30.3 nM
- TGI [42]: 86.6 nM
- GI50 [43]: 97.4 nM
- TGI [43]: > 100000 nM
- GI50 [44]: 80.1 nM
- TGI [44]: > 100000 nM
- GI50 [13]: 19.9 nM
- TGI [13]: > 100000 nM
- GI50 [45]: 171 nM
- TGI [45]: > 100000 nM
- GI50 [14]: 99.4 nM
- TGI [14]: > 100000 nM
- GI50 [46]: 160 nM
- TGI [46]: > 100000 nM
- GI50 [15]: 220 nM
- TGI [15]: > 100000 nM
- GI50 [47]: 127 nM
- TGI [47]: > 100000 nM
- GI50 [48]: 50.5 nM
- TGI [48]: > 100000 nM
- GI50 [49]: 41.3 nM
- TGI [49]: > 100000 nM
- GI50 [50]: 24.7 nM
- TGI [50]: 70.9 nM
- GI50 [51]: 37 nM
- TGI [51]: 1270 nM
- GI50 [52]: 90.4 nM
- TGI [52]: 28900 nM
- GI50 [53]: 44.9 nM
- TGI [53]: > 100000 nM
- GI50 [54]: 55.1 nM
- TGI [54]: > 100000 nM
- GI50 [55]: 41.1 nM
- TGI [55]: 551 nM
- GI50 [16]: 24.6 nM
- TGI [16]: > 100000 nM
- GI50 [17]: 1180 nM
- TGI [17]: > 46800 nM
- GI50 [56]: 47.4 nM
- TGI [56]: > 100000 nM
